Source: patent US20240002467A1, “COMPOSITIONS AND METHODS OF INHIBITING THE BINDING OF PLASMA IGG AUTOANTIBODIES TO SEROTONIN 2A RECEPTOR” (UNITED STATES GOVERNMENT AS REPRESENTED BY THE DEPARTMENT …, priority 2020, published 2024)
Where “and” joins values, the source holds several entries; their conditions need not be identical. Equal entries are not always repeated. Ends that are not written are not given here. * marks the point of attachment. Myristoyl = CCCCCCCCCCCCCC(=O)*

Experiments:
[1] = system: Zucker diabetic fatty rats; assay: Observation of side effects / tolerability in ZDF rats
[2] = system: male Zucker diabetic fatty rats; assay: Tail cuff blood pressure in male ZDF rats after IP peptide; type: in vivo, rat; details: for systolic blood pressure-lowering at 4 hours post-administration vs baseline: Experiment 2: two male ZDF rats; for Acute Peak diastolic blood pressure-lowering / Acute Peak mean arterial blood pressure-lowering / Acute Peak systolic blood pressure-lowering / Duration of Action, diastolic BP / Duration of Action, mean arterial BP / Duration of Action, systolic BP: two male ZDF rats
Method: Animals. Male ZDF and lean (+/?) Zucker rats were obtained from Charles River Laboratories (Kingston, NY) at approximately 6-7 weeks of age. The rats were single housed upon arrival, without enrichment. Rats were acclimatized for two weeks prior to experimental procedures. Rats were provided ad libitum access to food and water and maintained in a 12 h light/dark cycle with lights on at 0630. The procedures occurred during the light phase of the cycle. Blood pressure testing (following acute or chronic administration of the decoy peptides) was conducted in three separate cohorts of animals.
Cohort 1: Three 25-week-old male ZDF and three, age-matched, male Zucker lean rats (ZLR) treated with IP decoy peptide 2 (ZDF) vs saline (vehicle) (ZLR).
Cohort 2: Eleven-week old male ZDF (n=5) and Zucker lean rats (n=4) treated with IP decoy peptide 2.
Cohort 3: Twelve 8.5-week old male Zucker diabetic fatty rats were randomly assigned to one of three treatment groups (n=4/group). The rats underwent baseline blood pressure determinations using tail-cuff plethysmography technique. Next, the animals who expressed baseline hypertension, i.e., blood pressure >135/85, received either a 1 mg/kg intraperitoneal injection of pegylated decoy peptide 2 (n=3); a 2 mg/kg intraperitoneal dose of a scrambled decoy peptide 2 (n=4); or vehicle (i.e., sterile saline) (N=4). Blood pressure was determined at 15 minutes, 45 minutes, 4 hours, 8 hours, 24 hours, 30 and 48 hours following single IP injection. One week later, the same two groups of ZDF rats received either 0.75 mg/kg IP pegylated decoy peptide 2, 2 mg/kg scrambled decoy peptide 2, or sterile saline; and blood pressure was determined at similar timepoints. Two weeks later, two groups of 12-week-old ZDF rats (n=6/group) including those that had previously received acute peglyated decoy peptide 2 or scrambled decoy peptide 2 were treated on an alternative daily schedule with IP, free decoy peptide 2 (2 mg/kg) vs IP scrambled decoy peptide 2 (2 mg/kg) continuously for 13 weeks until sacrifice at 25 weeks of age. Body weight was determined immediately before sacrifice and after perfusion; and hearts were excised and weighed for determination of the heart-to-(perfused) body weight ratio.
(§1) Blood pressure monitoring. Tail cuff blood pressure measurement was performed using an automated CODA noninvasive blood pressure system (Kent Scientific, Torrington, CT). Rats were placed on an insulated warming platform in a well-heated room to ensure proper body temperature. Cuff monitors were provided in different sizes to accommodate rats of different ages and having different body weights. After the animal was positioned in the clear plastic restraint holder, the appropriate-sized cuff was slid over the rat's tail.
Statistical Analysis. Comparisons were made using Student's unpaired t-test (Tables 3-6, 9 and FIG. 18) or time series analysis (Tables 7, 8, FIG. 16).
as §1, with “CT.).” for “CT).”
Experiment 1: Four 12-week-old male ZDF rats were randomly assigned to receive either a single IP injection of a scrambled sequence (SEQ ID NO: 7) of Peptide ID #2 (SEQ ID NO: 2) at 1 mg/kg concentration or a 1 mg/kg concentration of myristolated Peptide ID #2 (SEQ ID NO: 9). Blood pressure was determined using tail cuff plethysmography (Kent Scientific) at 1, 4, 6, 48 and 72 hours post-injection.
Experiment 2: Six 12-week-old male ZDF rats were assigned to each of three treatment groups (N=2/group). […]

[3] = system: male Zucker diabetic fatty rats; assay: as above; type: in vivo, rat; details: two 13-week-old male ZDF rats, myristolated 2.5 mg/kg single IP
[4] = Solubility in water on reconstitution; type: physicochemical; details: compared with unconjugated peptide; reconstituted in DMSO first
Method: Synthetic peptides. The peptides were synthesized at Lifetein Inc. (Hillborough, NJ). The lyophilized peptides were aliquoted and stored (in the presence of desiccant) at −40° C. prior to use. On the day of intraperitoneal (IP) administration, an aliquot of lyophilized unconjugated peptide was reconstituted in sterile saline at the appropriate concentration of 2 mg/kg. Reconstituted peptide was prepared fresh before each injection. […] The final concentration of DMSO in sterile saline was 10%. The vehicle, DMSO in sterile saline, was tested independently and had no effect on blood pressure when administered as an IP injection.

[5] = 11-week-old male ZDF rats (N=4/group), single IP Myr-peptide 2 2 mg/kg vs scrambled 1 mg/kg (reference = 0), over 6 days
[6] = Experiment 1: myristolated 1 mg/kg single IP
[7] = four 11-12-week-old male ZDF rats, single 2 mg/kg IP
[8] = male ZDF rats before single 2 mg/kg IP, unconjugated: two 25-week-old, myristolated: four 11-12-week-old
[9] = male ZDF rats, single 2 mg/kg IP, unconjugated: two 25-week-old, myristolated: four 11-12-week-old
[10] = single 2 mg/kg IP vs 1 mg/kg scrambled
[11] = myristolated 1 mg/kg single IP, listed as Myristolated Peptide 2
[12] = myristolated 1.5 mg/kg single IP
[13] = myristolated 1.5 mg/kg single IP, listed as Myristolated Peptide 2
[14] = myristolated 2.0 mg/kg single IP
[15] = myristolated 2.0 mg/kg single IP, listed as Myristolated Peptide 2
[16] = myristolated 2.5 mg/kg single IP
[17] = myristolated 2.5 mg/kg single IP, listed as Myr Peptide 2
[18] = myristolated 2.5 mg/kg single IP, listed as Myristolated Peptide 2

## Myr-SCLLADDN (Myristoyl-SCLLADDN) [myristolated Peptide ID 2]
[1]; Experiment 1: male ZDF rats, myristolated 1 mg/kg IP
  adverse physical or behavioral effects: No discernable adverse physical or behavioral effects
[1]; ten ZDF rats (Expt 1 and 2), up to 14-21 days after single IP
  untoward physical or behavioral effect: None of the ten rats tested (N=4 in Expt 1; N=6 in Expt 2) experienced any untoward physical or behavioral effect
[2]; [5]
  Estimate: diastolic blood pressure lowering effect vs scrambled peptide (time series): −12.0471
  Estimate: systolic blood pressure lowering effect vs scrambled peptide (time series): −17.4393
[2]; Experiment 1: male ZDF rats (N=2/group), 1 mg/kg single IP
  effect on diastolic blood pressure, in words: rapid-onset diastolic blood pressure lowering
[2]; [6]
  effect on systolic blood pressure, in words: significantly lower at 1, 4, 6 hours and 48 hours post-baseline, but not at 72 hours
  time span of significantly reduced mean arterial blood pressure: 1 to 72 h
[2]; Experiment 2: myristolated 1 mg/kg IP, one value per rat
  persistence of systolic blood pressure-lowering: 48 to 72 h and 96 to 168 h
[2]; Experiment 2: myristolated 1 mg/kg IP, rat 1 / rat 2
  persistence of declines in diastolic and mean arterial blood pressure: 2 to 3 days and 4 to 7 days
[2]; Experiment 2: myristolated 1.5 mg/kg IP
  persistence of systolic blood pressure-lowering: up to 168 hours
[2]; Experiment 2: myristolated 1.5 mg/kg IP, both rats
  persistence of blood pressure-lowering: up to 7 days
[2]; myristolated 1 mg/kg IP
  systolic blood pressure-lowering at 4 hours post-administration vs baseline: 8-11%
[2]; myristolated 1.5 mg/kg IP
  systolic blood pressure-lowering at 4 hours post-administration vs baseline: 13%
[2]; [7]
  mean diastolic BP, 72 hours: 80
  mean diastolic BP, 6 days: 85
  mean diastolic BP, 7 days: 94
  mean systolic BP, 72 hours: 126
  mean systolic BP, 6 days: 127
  mean systolic BP, 7 days: 142
[2]; [8]
  mean diastolic BP, Baseline: 97
  mean systolic BP, Baseline: 146
[2]; [9]
  mean diastolic BP, 24 hours: 76
  mean diastolic BP, 48 hours: 82
  mean systolic BP, 24 hours: 117
  mean systolic BP, 48 hours: 123
[2]; male ZDF rats, single IP 2 mg/kg, myristic acid conjugated
  duration of blood pressure lowering: ≥ 6 days
[2]; [10]
  mean lowering in diastolic blood pressure compared to scrambled Peptide 2: 12 mm Hg
  mean lowering in systolic blood pressure compared to scrambled Peptide 2: 17.4 mm Hg
[2]; single IP doses ranging from 1.0-2.5 mg/kg
  blood pressure-lowering effects, in words: potent, dose-dependent, and in many cases unexpectedly quite long-lasting
[2]; two 13-week-old male ZDF rats, myristolated 2.5 mg/kg single IP
  time until systolic and diastolic blood pressure returned to baseline: 9 days
[2]; myristolated 1 mg/kg single IP
  Acute Peak diastolic blood pressure-lowering: 10-12%
  Acute Peak mean arterial blood pressure-lowering: 6-8%
  Acute Peak systolic blood pressure-lowering: 4-10%^
  Duration of Action, diastolic BP: 4 to 6 days
  Duration of Action, mean arterial BP: 4 to 6 days
[2]; [11]
  Acute Peak diastolic blood pressure-lowering: 10-12%
  Acute Peak mean arterial blood pressure-lowering: 6-8%
  Duration of Action, systolic BP: 4 to 7 days and 7 days
[2]; [12]
  Acute Peak diastolic blood pressure-lowering: 11-19%
  Acute Peak mean arterial blood pressure-lowering: 14%
  Acute Peak systolic blood pressure-lowering: 10%
  Duration of Action, diastolic BP: 7 days
  Duration of Action, mean arterial BP: 7 days
  Duration of Action, systolic BP: 7 days
[2]; [13]
  Acute Peak diastolic blood pressure-lowering: 19%
  Acute Peak mean arterial blood pressure-lowering: 14%
[2]; [14]
  Acute Peak diastolic blood pressure-lowering: 22-25%
  Acute Peak systolic blood pressure-lowering: 7-15%
[2]; myristolated 2.0 mg/kg single IP, listed as Myr Peptide 2
  Acute Peak mean arterial blood pressure-lowering: 14-22%
[2]; [15]
  Acute Peak diastolic blood pressure-lowering: 20-25%.
  Acute Peak mean arterial blood pressure-lowering: 14-22%
  Acute Peak systolic blood pressure-lowering: 15%
[2]; [16]
  Acute Peak systolic blood pressure-lowering: 20-23%
  Duration of Action, diastolic BP: 9 days
  Duration of Action, mean arterial BP: 9 days
  Duration of Action, systolic BP: 9 days
[2]; [17]
  Acute Peak diastolic blood pressure-lowering: 18-35%
  Acute Peak mean arterial blood pressure-lowering: 28-30%
[2]; [18]
  Acute Peak diastolic blood pressure-lowering: 18-36%
  Acute Peak mean arterial blood pressure-lowering: 19-30%
  Acute Peak systolic blood pressure-lowering: 23%
[3]; listed as myristolated decoy Peptide 2
  duration of persistent blood pressure lowering: 9 days
[3]; listed as myristolated decoy peptide 2
  duration of persistent blood pressure lowering: 8 days
[4]
  solubility in water, in words: lower solubility in water
